Assay results reported in patent US8796250B2, “Diaryl ureas for diseases mediated by PDGFR” (Bayer Healthcare LLC, priority 2003, dated 2014).

How the values were obtained:
mouse PDGFR (PDGFR beta) = biological target: T1, mouse PDGFR (PDGFR beta) (Mus musculus, UniProt P05622); test: Murine PDGFR FRET Biochemical Assay; conditions: 1 nM mouse PDGFR, 20 μM ATP, TR-FRET; read-out: IC50 in biochemical assay (inhibition of PDGFR)
T1 construct: made in house
Description: Reaction is initiated upon addition of enzyme.

[1] = biological target: T2, PDGFR-beta phosphorylation (Tyr-857) in Aortic SMC stimulated with PDGF BB (Homo sapiens, UniProt P09619); test: pPDGFR-Beta Sandwich ELISA in AoSMC Cells; type: cell-based; conditions: 1 hr compound, 10 ng/mL PDGF BB for 7 minutes, read-out: IC50 in bioassay of PDGFR inhibition in cells
T2 construct: endogenous in cells; host or cells: Aortic SMC (AoSMC), passages P3-P6
Protocol: 100K P3-P6 Aortic SMC were plated in each well of 12-well cluster in 1000 uL volume/well of SGM-2 using standard cell culture techniques. Next day, cells were rinsed with 1000 uL D-PBS (Gibco) once, then serum starved in 500 uL SBM (smooth muscle cell basal media) with 0.1% BSA (Sigma, Cat A9576) overnight. Compounds were diluted at a dose range from (10 uM to 1 nM in 10-fold dilution steps in DMSO. Final DMSO concentration 0.1%). Remove old media by inversion into the sink quickly then add 100 ul of each dilution to corresponding well of cells for 1 hr at 37° C. Cells were then stimulated with 10 ng/mL PDGF BB ligand for 7 minutes at 37° C. The media is decanted and 150 uL of isotonic lysis buffer with protease inhibitor tablet (Complete; EDTA-free) and 0.2 mM Na vanadate is added. Cells are lysed for 15 min at 4° C. on shaker in cold room. […] Next day, beads are rinsed in 50-volumes of PBS three times and boiled in 1×LDS sample buffer (Invitrogen) for 5 minutes. Samples were run on 3-8% gradient Tris-Acetate gels (Invitrogen) and transferred onto Nitrocellulose. […] After three washes in TBS-T, membranes were incubated in Goat anti-rabbit HRP IgG (Amersham, 1:25000 dilution) for 1 hr. Three more washes followed before addition of ECL substrate. Membranes were exposed to Hyperfilm-ECL.

neointimal formation = conditions: rat model; M. Karck et al. 2002; cited from earlier work
[2] = test system: restenosis following angioplasty; conditions: G. Bilder et al. Circulation 1999; cited from earlier work

T1 sequence (P05622 32-1098): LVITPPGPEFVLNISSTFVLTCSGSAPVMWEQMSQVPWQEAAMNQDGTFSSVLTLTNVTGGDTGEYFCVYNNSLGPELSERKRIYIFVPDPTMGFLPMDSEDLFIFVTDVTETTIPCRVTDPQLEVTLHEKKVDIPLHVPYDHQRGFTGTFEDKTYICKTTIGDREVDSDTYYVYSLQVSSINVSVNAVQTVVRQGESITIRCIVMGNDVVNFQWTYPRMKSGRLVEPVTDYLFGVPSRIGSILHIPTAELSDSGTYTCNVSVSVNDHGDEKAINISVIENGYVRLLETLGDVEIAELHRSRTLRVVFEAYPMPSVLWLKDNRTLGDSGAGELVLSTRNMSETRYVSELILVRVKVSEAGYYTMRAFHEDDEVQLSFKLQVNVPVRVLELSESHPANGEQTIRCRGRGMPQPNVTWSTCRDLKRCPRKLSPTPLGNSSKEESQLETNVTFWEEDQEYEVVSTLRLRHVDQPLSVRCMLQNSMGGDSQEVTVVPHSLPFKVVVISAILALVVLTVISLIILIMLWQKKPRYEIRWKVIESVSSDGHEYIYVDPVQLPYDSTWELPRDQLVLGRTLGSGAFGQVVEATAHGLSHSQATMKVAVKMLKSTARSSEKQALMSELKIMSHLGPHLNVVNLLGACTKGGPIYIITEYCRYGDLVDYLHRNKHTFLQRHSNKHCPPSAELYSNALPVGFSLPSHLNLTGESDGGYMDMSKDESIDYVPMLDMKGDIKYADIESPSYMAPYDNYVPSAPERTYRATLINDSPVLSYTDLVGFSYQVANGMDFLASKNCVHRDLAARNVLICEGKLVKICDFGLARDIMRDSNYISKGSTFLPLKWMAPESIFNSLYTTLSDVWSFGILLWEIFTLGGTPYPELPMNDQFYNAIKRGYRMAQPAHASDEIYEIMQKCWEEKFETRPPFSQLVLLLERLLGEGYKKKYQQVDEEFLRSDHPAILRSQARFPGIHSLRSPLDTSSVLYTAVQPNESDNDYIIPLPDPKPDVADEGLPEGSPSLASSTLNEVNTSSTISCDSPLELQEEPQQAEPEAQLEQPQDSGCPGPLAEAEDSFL
T2 sequence (P09619 33-1106): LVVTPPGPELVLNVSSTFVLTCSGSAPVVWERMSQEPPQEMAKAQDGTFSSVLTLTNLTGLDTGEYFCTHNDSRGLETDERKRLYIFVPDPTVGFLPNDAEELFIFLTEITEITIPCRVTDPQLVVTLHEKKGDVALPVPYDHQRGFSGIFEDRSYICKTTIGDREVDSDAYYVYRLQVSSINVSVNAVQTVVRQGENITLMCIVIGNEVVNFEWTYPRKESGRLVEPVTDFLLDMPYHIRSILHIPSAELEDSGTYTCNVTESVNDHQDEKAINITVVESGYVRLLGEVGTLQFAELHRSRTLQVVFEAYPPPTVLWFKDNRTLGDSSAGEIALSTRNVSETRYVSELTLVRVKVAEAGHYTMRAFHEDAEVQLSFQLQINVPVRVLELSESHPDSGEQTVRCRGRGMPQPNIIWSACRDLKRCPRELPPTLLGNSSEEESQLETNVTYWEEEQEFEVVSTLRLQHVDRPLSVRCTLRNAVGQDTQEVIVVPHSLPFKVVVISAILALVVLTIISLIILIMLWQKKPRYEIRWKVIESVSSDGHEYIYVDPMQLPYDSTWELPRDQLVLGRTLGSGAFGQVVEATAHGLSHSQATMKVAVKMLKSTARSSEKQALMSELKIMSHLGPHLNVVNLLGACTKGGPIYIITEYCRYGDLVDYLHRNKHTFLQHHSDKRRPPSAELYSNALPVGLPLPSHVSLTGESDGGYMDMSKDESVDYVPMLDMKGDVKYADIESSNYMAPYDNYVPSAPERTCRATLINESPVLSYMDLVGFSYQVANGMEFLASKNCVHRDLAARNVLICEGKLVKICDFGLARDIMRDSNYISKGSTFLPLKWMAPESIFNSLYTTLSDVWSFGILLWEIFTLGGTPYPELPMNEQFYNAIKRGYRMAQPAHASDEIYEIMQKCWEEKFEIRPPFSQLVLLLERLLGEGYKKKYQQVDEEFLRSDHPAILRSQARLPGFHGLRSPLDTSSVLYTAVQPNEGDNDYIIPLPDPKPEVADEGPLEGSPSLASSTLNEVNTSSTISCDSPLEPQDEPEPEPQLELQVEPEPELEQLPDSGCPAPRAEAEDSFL

Compound | IC50 (mouse PDGFR (PDGFR beta)) [µM] | other results
N#Cc1cc(Oc2ccc(NC(=O)Nc3ccc4c(c3)C(F)(F)OC(F)(F)O4)cc2)ccn1 [N-(6-(2,2,4,4-tetrafluoro-4H-benzo[1,3]dioxinyl))-N′-(4-(2-cyano-4-pyridyloxy)phenyl) urea] | < 10 | 
CNC(=O)c1cc(Oc2ccc(NC(=O)Nc3ccc(Cl)c(C(F)(F)F)c3)cc2)ccn1 [N-(4-chloro-3-(trifluoromethyl)phenyl)-N′-(4-(2-(N-methylcarbamoyl)-4-pyridyloxy)phenyl) urea] | < 10 | 
CNC(=O)c1cc(Oc2ccc(NC(=O)Nc3ccc(Br)c(C(F)(F)F)c3)cc2)ccn1 [N-(4-bromo-3-(trifluoromethyl)phenyl)-N′-(4-(2-(N-methylcarbamoyl)-4-pyridyloxy)phenyl) urea] | < 10 | 
CNC(=O)c1cc(Oc2ccc(NC(=O)Nc3ccc(Br)c(C(F)(F)F)c3)c(Cl)c2)ccn1 [N-(4-bromo-3-(trifluoromethyl)phenyl)-N′-(4-(2-(N-methylcarbamoyl)-4-pyridyloxy)-2-chlorophenyl) urea] | < 10 | 
NC(=O)c1cc(Oc2ccc(NC(=O)Nc3ccc(Cl)c(C(F)(F)F)c3)cc2)ccn1 [N-(4-chloro-3-(trifluoromethyl)phenyl)-N′-(4-(2-carbamoyl-4-pyridyloxy)phenyl) urea] | < 10 | 
NC(=O)c1cc(Oc2ccc(NC(=O)Nc3ccc(Cl)c(C(F)(F)F)c3)cc2)cc[n+]1[O-] [N-(4-chloro-3-(trifluoromethyl)phenyl)-N′-(4-(1-hydroxy-2-carbamoyl-4-pyridyloxy)phenyl) urea] | < 10 | 
N#Cc1cc(Oc2ccc(NC(=O)Nc3ccc4c(c3)C(F)(F)OC(F)(F)O4)c(F)c2)ccn1 [N-(6-(2,2,4,4-tetrafluoro-4H-benzo[1,3]dioxinyl))-N′-(4-(2-cyano-4-pyridyloxy)-2-fluorophenyl) urea] | < 10 | 
CNC(=O)c1cc(Oc2ccc(NC(=O)Nc3ccc(Cl)c(C(F)(F)F)c3)c(Cl)c2)ccn1 [N-(4-chloro-3-(trifluoromethyl)phenyl)-N′-(4-(2-(N-methylcarbamoyl)-4-pyridyloxy)-2-chlorophenyl) urea] | < 10 | IC50 [1]: < 10 µM
Cc1cc2ncc(-c3ccccc3)nc2cc1C [AG-1295] |  | effect on neointimal formation in aortic allograft vasculopathy (neointimal formation): reduce neointimal formation
CNC(=O)c1cc(Oc2ccc(NC(=O)Nc3ccc(Br)c(C(F)(F)F)c3)c(F)c2)ccn1 [N-(4-bromo-3-(trifluoromethyl)phenyl)-N′-(4-(2-(N-methylcarbamoyl)-4-pyridyloxy)-2-fluorophenyl) urea] | < 10 | 
CNC(=O)c1cc(Oc2ccc(NC(=O)Nc3ccc(F)c(C(F)(F)F)c3)c(F)c2)ccn1 [N-(4-fluoro-3-(trifluoromethyl)phenyl)-N′-(4-(2-(N-methylcarbamoyl)-4-pyridyloxy)-2-fluorophenyl) urea] | < 10 | 
COc1cc2ncc(-c3ccsc3)nc2cc1OC.Cl [RPR101511A] |  | effect on restenosis following angioplasty [2]: prevented angiographically defined restenosis following angioplasty
CNC(=O)c1cc(Oc2ccc(NC(=O)Nc3ccc(Cl)c(C(F)(F)F)c3)cc2)cc[n+]1[O-] [N-(4-chloro-3-(trifluoromethyl)phenyl)-N′-(4-(1-hydroxy-2-(N-methylcarbamoyl)-4-pyridyloxy)phenyl) urea] | < 10 | 
